Data as given in PMC2867246 (Biochemistry, 2010).

Columns and labels:
[1] = tested on: CaV2.2; conditions: cited from earlier work
[2] = tested on: N-type calcium channels (CaV2.2); type: cell-based; conditions: pH 7.4
[3] = tested on: Swiss Webster mice; conditions: mouse, in vivo

## ω-conotoxin GVIA
[1]
  affinity for CaV2.2, in words: high affinity
[2]
  percentage block of N-current: 98.5 ± 1.0 percentage
[3]
  behavior after injection: shaking syndrome
  behavior at higher concentrations: passive behavior with a backwards leg-extension
  duration of shaking behavior: lasted for more than a day
